Data reported in PubChem BioAssay AID328 (DTP/NCI, 2004).
Where “and” joins values, the source holds several entries; their conditions need not be identical. Identical values can stand only once. Inconclusive results and toxic doses are left out.

Test system: BDF1 mice, P388 leukemia ip, median survival T/C
Experiment: NCI In Vivo Anticancer Drug Screen. Data for tumor model P388 Leukemia (intraperitoneal) in B6D2F1 (BDF1) mice
Conditions: endpoint: median survival time, higher = longer survival
Summary of the method: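 Transplantable tumour in mice; compound vs vehicle dosing; survival scored; ratio of treated to control reported.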

[1] = dose: 100.0 mg/kg/injection, schedule: Q04DX003 (ip), vehicle: saline with Tween-80
[2] = dose: 200.0 mg/kg/injection, schedule: Q04DX003 (ip), vehicle: saline with Tween-80
[3] = dose: 12.5 mg/kg/injection, schedule: Q04DX003 (ip), vehicle: saline
[4] = dose: 50.0 mg/kg/injection, schedule: Q01DX009 (ip), vehicle: Klucel (hydroxypropylcellulose) (HPC)
[5] = dose: 100.0 mg/kg/injection, schedule: Q01DX009 (ip), vehicle: saline with Tween-80
[6] = dose: 50.0 mg/kg/injection, schedule: Q04DX003 (ip), vehicle: saline with Tween-80
[7] = dose: 50.0 mg/kg/injection, schedule: Q01DX009 (ip), vehicle: saline
[8] = dose: 50.0 mg/kg/injection, schedule: Q04DX003 (ip), vehicle: saline
[9] = dose: 100.0 mg/kg/injection, schedule: Q01DX009 (ip), vehicle: saline
[10] = dose: 100.0 mg/kg/injection, schedule: Q04DX003 (ip), vehicle: saline
[11] = dose: 200.0 mg/kg/injection, schedule: Q01DX009 (ip), vehicle: saline
[12] = dose: 200.0 mg/kg/injection, schedule: Q04DX003 (ip), vehicle: saline
[13] = dose: 12.5 mg/kg/injection, schedule: Q01DX009 (ip), vehicle: saline with Tween-80
[14] = dose: 25.0 mg/kg/injection, schedule: Q01DX009 (ip), vehicle: saline with Tween-80
[15] = dose: 50.0 mg/kg/injection, schedule: Q01DX009 (ip), vehicle: saline with Tween-80
[16] = dose: 150.0 mg/kg/injection, schedule: Q01DX009 (ip), vehicle: saline with Tween-80
[17] = dose: 400.0 mg/kg/injection, schedule: Q01DX009 (ip), vehicle: saline
[18] = dose: 400.0 mg/kg/injection, schedule: Q04DX003 (ip), vehicle: saline
[19] = dose: 200.0 mg/kg/injection, schedule: Q01DX009 (ip), vehicle: saline with Tween-80
[20] = dose: 12.5 mg/kg/injection, schedule: Q01DX009 (ip), vehicle: saline
[21] = dose: 25.0 mg/kg/injection, schedule: Q01DX009 (ip), vehicle: saline

CC(O)(C(N)=O)c1cc(Cl)ccc1Cl (configuration not stated)
T/C (dose: 100.0 mg/kg/injection, schedule: Q01DX009 (ip), vehicle: water): 110 % of control | T/C (dose: 100.0 mg/kg/injection, schedule: Q04DX003 (ip), vehicle: water): 109 % of control | T/C (dose: 200.0 mg/kg/injection, schedule: Q01DX009 (ip), vehicle: water): 110 % of control | T/C (dose: 200.0 mg/kg/injection, schedule: Q04DX003 (ip), vehicle: water): 100 % of control | T/C (dose: 400.0 mg/kg/injection, schedule: Q01DX009 (ip), vehicle: water): 90 % of control | T/C (dose: 400.0 mg/kg/injection, schedule: Q04DX003 (ip), vehicle: water): 95 % of control

CC1=C(C)CC2C(=O)C(C(O)CC(C)C)=CC(=O)C2C1 (configuration not stated)
T/C [1]: 100 % of control | T/C [2]: 113 % of control | T/C (dose: 400.0 mg/kg/injection, schedule: Q04DX003 (ip), vehicle: saline with Tween-80): 93 % of control

COc1ccc(CCN2CSC(=S)N(CCc3ccc(OC)c(OC)c3)C2)cc1OC
T/C (dose: 100.0 mg/kg/injection, schedule: Q01DX009 (ip), vehicle: Klucel (hydroxypropylcellulose) (HPC)): 100 % of control | T/C (dose: 200.0 mg/kg/injection, schedule: Q01DX009 (ip), vehicle: Klucel (hydroxypropylcellulose) (HPC)): 110 % of control | T/C (dose: 400.0 mg/kg/injection, schedule: Q01DX009 (ip), vehicle: Klucel (hydroxypropylcellulose) (HPC)): 94 % of control

CCC[N+](C)(C)CCCCOCCCC[N+](C)(C)CCC
T/C (dose: 3.0 mg/kg/injection, schedule: Q01DX009 (ip), vehicle: saline): 88 % of control | T/C (dose: 3.0 mg/kg/injection, schedule: Q04DX003 (ip), vehicle: saline): 100 % of control | T/C (dose: 6.0 mg/kg/injection, schedule: Q01DX009 (ip), vehicle: saline): 92 % of control | T/C (dose: 6.0 mg/kg/injection, schedule: Q04DX003 (ip), vehicle: saline): 116 % of control | T/C (dose: 6.25 mg/kg/injection, schedule: Q04DX003 (ip), vehicle: saline): 113 % of control | T/C (dose: 12.0 mg/kg/injection, schedule: Q01DX009 (ip), vehicle: saline): 96 % of control | T/C (dose: 12.0 mg/kg/injection, schedule: Q04DX003 (ip), vehicle: saline): 100 % of control | T/C [3]: 109 % of control

C=CCNc1ccc(C)cc1
T/C (dose: 12.5 mg/kg/injection, schedule: Q01DX009 (ip), vehicle: Klucel (hydroxypropylcellulose) (HPC)): 110 % of control | T/C (dose: 25.0 mg/kg/injection, schedule: Q01DX009 (ip), vehicle: Klucel (hydroxypropylcellulose) (HPC)): 116 % of control | T/C [4]: 116 % of control | T/C [5]: 122 % of control

c1cnc2c3c(ccc2c1)CN(C1CCCCC1)CO3
T/C [6]: 104 % of control | T/C [1]: 104 % of control | T/C [2]: 90 % of control

CC(C)(C)CC(=O)OCCC[N+](C)(C)C
T/C (dose: 6.25 mg/kg/injection, schedule: Q01DX009 (ip), vehicle: water): 103 % of control | T/C (dose: 12.5 mg/kg/injection, schedule: Q01DX009 (ip), vehicle: water): 119 % of control | T/C (dose: 25.0 mg/kg/injection, schedule: Q01DX009 (ip), vehicle: water): 99 % of control | T/C (dose: 50.0 mg/kg/injection, schedule: Q01DX009 (ip), vehicle: water): 91 % of control

CN(CCCCN(C)CCOS(C)(=O)=O)CCOS(C)(=O)=O
T/C (dose: 0.8 mg/kg/injection, schedule: Q04DX003 (ip), vehicle: saline): 177 % of control | T/C (dose: 1.2 mg/kg/injection, schedule: Q04DX003 (ip), vehicle: saline): 172 % of control | T/C (dose: 1.8 mg/kg/injection, schedule: Q04DX003 (ip), vehicle: saline): 154 % of control

CCCCn1cnc2c(SC)ncnc21
T/C (dose: 22.0 mg/kg/injection, schedule: Q04DX003 (ip), vehicle: saline): 100 % of control | T/C (dose: 33.0 mg/kg/injection, schedule: Q04DX003 (ip), vehicle: saline): 104 % of control | T/C [7]: 95 % of control | T/C [8]: 104 % of control | T/C (dose: 75.0 mg/kg/injection, schedule: Q04DX003 (ip), vehicle: saline): 113 % of control | T/C [9]: 100 % of control | T/C [10]: 104 % of control | T/C [11]: 104 % of control | T/C [12]: 90 % of control

CC1(c2cccs2)C(=O)NC(=O)N1C(=O)CCl (configuration not stated)
T/C [13]: 101 % of control | T/C [14]: 88 % of control | T/C [15]: 105 % of control | T/C [6]: 104 % of control | T/C (dose: 75.0 mg/kg/injection, schedule: Q01DX009 (ip), vehicle: saline with Tween-80): 90 % of control | T/C [5]: 106 % of control | T/C [1]: 94 % of control | T/C [16]: 105 % of control | T/C [2]: 97 % of control

C#CCOCC(O)CN (configuration not stated)
T/C [9]: 100 % of control | T/C [10]: 110 % of control | T/C [11]: 120 % of control | T/C [12]: 100 % of control | T/C [17]: 104 % of control | T/C [18]: 100 % of control

O=C(c1ccccc1)C12CC3CC(CC(C3)C1)C2
T/C (dose: 6.25 mg/kg/injection, schedule: Q01DX009 (ip), vehicle: saline with Tween-80): 90 % of control and 98 % of control | T/C [13]: 90 % of control | T/C [14]: 90 % of control and 99 % of control | T/C [15]: 97 % of control | T/C [19]: 107 % of control

CCOC(=O)C(OCc1ccccc1)C(=O)OCC
T/C [5]: 87 % of control | T/C [10]: 115 % of control | T/C [19]: 104 % of control | T/C [12]: 90 % of control | T/C (dose: 400.0 mg/kg/injection, schedule: Q01DX009 (ip), vehicle: saline with Tween-80): 108 % of control | T/C [18]: 90 % of control

CCCNc1ncnc2c1cnn2C
T/C [20]: 88 % of control | T/C [21]: 112 % of control | T/C [7]: 108 % of control | T/C [10]: 120 % of control | T/C [12]: 120 % of control

COc1cccc(/C=N/NC(=O)C[n+]2ccccc2)c1OC
T/C [13]: 104 % of control | T/C [14]: 100 % of control | T/C [15]: 104 % of control | T/C [6]: 100 % of control

O=C(NC1=NN(c2ccccc2)C(=O)C1)c1ccccc1
T/C (dose: 37.5 mg/kg/injection, schedule: Q01DX009 (ip), vehicle: saline with Tween-80): 105 % of control | T/C [16]: 96 % of control

FC(F)(F)c1ccc(C=Nc2ccc(Oc3ccccc3)cc2)cc1
T/C [15]: 98 % of control | T/C [5]: 100 % of control | T/C [19]: 91 % of control

Cn1ccn(C2CCCCC2)c1=O
T/C (dose: 25.0 mg/kg/injection, schedule: Q04DX003 (ip), vehicle: saline with Tween-80): 95 % of control | T/C [6]: 100 % of control

CC(C)SC=O
T/C [21]: 100 % of control | T/C [7]: 101 % of control | T/C [8]: 101 % of control | T/C [9]: 92 % of control and 97 % of control | T/C [10]: 109 % of control | T/C [11]: 86 % of control | T/C [12]: 98 % of control | T/C [17]: 97 % of control and 118 % of control | T/C [18]: 103 % of control

CC1CCCCC1(O)CSc1ccccc1 (configuration not stated)
T/C [13]: 100 % of control and 106 % of control | T/C [14]: 102 % of control and 116 % of control | T/C [15]: 103 % of control and 113 % of control | T/C [5]: 116 % of control (2×) and 124 % of control | T/C [19]: 101 % of control

CNC(=O)OCc1c(COC(=O)NC)c(-c2ccc(Cl)cc2)n2c1CCC2
T/C [4]: 96 % of control

Cc1nn(-c2ccccc2)c(N)c1C#N
T/C (dose: 6.25 mg/kg/injection, schedule: Q01DX009 (ip), vehicle: saline): 111 % of control | T/C [20]: 94 % of control | T/C [3]: 98 % of control | T/C [21]: 102 % of control | T/C (dose: 25.0 mg/kg/injection, schedule: Q04DX003 (ip), vehicle: Klucel (hydroxypropylcellulose) (HPC)): 98 % of control | T/C (dose: 25.0 mg/kg/injection, schedule: Q04DX003 (ip), vehicle: saline): 163 % of control | T/C [7]: 111 % of control | T/C (dose: 50.0 mg/kg/injection, schedule: Q04DX003 (ip), vehicle: Klucel (hydroxypropylcellulose) (HPC)): 98 % of control | T/C [8]: 86 % of control | T/C [9]: 96 % of control | T/C (dose: 100.0 mg/kg/injection, schedule: Q04DX003 (ip), vehicle: Klucel (hydroxypropylcellulose) (HPC)): 121 % of control | T/C [10]: 87 % of control | T/C [11]: 111 % of control | T/C (dose: 200.0 mg/kg/injection, schedule: Q04DX003 (ip), vehicle: Klucel (hydroxypropylcellulose) (HPC)): 113 % of control | T/C [12]: 269 % of control | T/C [17]: 105 % of control | T/C (dose: 400.0 mg/kg/injection, schedule: Q04DX003 (ip), vehicle: Klucel (hydroxypropylcellulose) (HPC)): 102 % of control
